Source: PMC10844371 (Diabetologia, 2023)

Experiments:
[1] = test system: PKA activity in alpha cells; experiment: PKA activity measurements (AKAR3) in alpha cells in intact islets; format: cell-based, mouse
Procedure: PKA activity was measured using AKAR3 as previously described. The cells were continuously superfused at a rate of 60 μl/min with EC4 (ESM Table 2).

[2] = test system: isolated mouse pancreatic islets; format: cell-based
Procedure: Experiments were conducted as previously described. Islets were incubated in 0.3 ml EC1 or EC2 media (ESM Table 2) supplemented with glucose and other reagents as indicated.
(§1) All data are reported, unless otherwise stated, as mean values ± SEM for the indicated number of experiments using islets from multiple mice. For hormone release studies, islets were isolated and pooled from 4–16 mice. These islets were then subdivided into groups of 12–20 size-matched islets. Each unique set of islets counted as an experiment with the experiments repeated on 2–4 days. Similarly, each unique group of human islets was treated as an experiment. […] In the Ca^2+ imaging and granule docking experiment, each cell represents an experiment making sure that cells from multiple donors/animals were used. For the in vivo experiments and the perfused pancreas, each mouse count represents an experiment. For two groupings, a t test was conducted. For multiple comparisons, one-way ANOVA was conducted. All statistical tests were performed using Graphpad Prism (version 9.1.0; graphpad.com).

[3] = test system: isolated mouse pancreatic islets; experiment: Insulin secretion in isolated mouse islets (RIA); format: cell-based
Procedure: (§2) Mouse islets were used acutely, except for studies with PTX, wherein islets were treated overnight with the toxin. Human islets were maintained in culture for up to 48 h in RPMI medium containing 10% (vol./vol.) FCS, 1% (vol./vol.) penicillin/streptomycin and 5 mmol/l glucose. Experiments were conducted as previously described. Islets were incubated in 0.3 ml EC1 or EC2 media (ESM Table 2) supplemented with glucose and other reagents as indicated.
(§3) Insulin and somatostatin were determined by RIA (Millipore and Diasource ImmunoAssays, respectively) as described previously. In these experiments, rates of release are expressed as % of contents unless otherwise indicated.

[4] = test system: isolated mouse pancreatic islets; experiment: Somatostatin secretion in isolated mouse islets (RIA); format: cell-based; details: 1 mmol/l glucose, groups of 20 islets
Procedure: as §2, with “indicated. Glucagon was determined by ELISA (Mercodia).” for “indicated.”
as §3

human pancreatic islets = experiment: Glucagon secretion in human islets (ELISA); format: cell-based; details: human islets, 10 pmol/l, 1 mmol/l glucose
Procedure: Human pancreatic islets were isolated (with ethical approval and clinical consent) as previously described. Islets from the pancreases of 18 healthy donors and five donors with type 2 diabetes were used (see electronic supplementary material [ESM] Table 1; ESM Human islets checklist).
as §2, with “indicated. Glucagon was determined by ELISA (Mercodia).” for “indicated.”
as §1, with “graphpad.com). It was ascertained that the data were normally distributed.” for “graphpad.com).”

mouse alpha cells = experiment: TIRF imaging of docked secretory granules in mouse alpha cells; format: cell-based
Procedure: Cells were imaged using total internal reflection fluorescence (TIRF) microscopy (AxioObserver Z1 with a ×100/1.45 objective [Carl Zeiss] and a diode-pumped solid state laser at 491 nm). For these measurements, EC1 was used (ESM Table 2). Images from cells infected with preproglucagon promoter (PPPG)-neuropeptide Y (NPY)-enhanced green fluorescent protein (EGFP) virus were recorded using an electron-multiplying charge-coupled device camera (Photometrics Evolve) using ZEN blue. Single images of cells were acquired to measure the number of docked granules. Incoming and outgoing granules during visiting, docking and undocking were determined from multiple frame movies as described previously. Candidate docking or undocking events were found manually as granules that approached the TIRF field with an axial component and became laterally confined for at least two frames. We defined docking as granules that remained confined for at least 1 min. Visitors were those granules that remained for <1 min after appearing at the plasma membrane. Undocking was defined as slow movement of a previously docked granule away from its docking site. Granule density was calculated using a script that used the built-in ‘find maxima’ function in ImageJ (version 1.53c; http://rsbweb.nih.gov/ij) for spot detection.

P/Q-type Ca^2+ channels = experiment: [Ca2+]i imaging of depolarisation-evoked Ca2+ entry in alpha cells (Gcg-GCaMP6f islets); format: cell-based, mouse; details: in the presence of GLP-1(9–36) 10 pmol/l; p=0.26
Procedure: For live-cell cytoplasmic free Ca^2+ concentration ([Ca^2+]i) imaging experiments, Gcg-GCaMP6f islets were immobilised to a poly-L-lysine-coated coverslip fixed in a custom-built imaging chamber filled with EC3 (ESM Table 2). [Ca^2+]i was measured in islets from mice expressing GCaMP6f in alpha cells. [Ca^2+]i imaging experiments were then performed using an inverted LSM 510 confocal microscope (Zeiss) controlled with ZEN Black (Zeiss), using a ×40/1.3 oil immersion objective. Time-lapse images were collected every 0.98 s with a frame size of 256×256 pixels, with the bath solution (EC3) perfused at a rate of 0.4 ml/min and heated to 37°C. GCaMP6f was excited by an argon laser (488 nm) and emission was collected at 510 nm.
[Ca^2+]i imaging videos were analysed using the Fiji imaging processing package. The mean fluorescence (F) of each region of interest was normalised to baseline signal (F0) and expressed as F/F0 before exporting into ClampFit (version 10.7; Molecular Devices, CA, USA), where baseline was corrected and AUC was calculated.

For CC[C@H](C)[C@H](NC(=O)[C@H](Cc1ccccc1)NC(=O)[C@H](CCC(=O)O)NC(=O)[C@H](CCCCN)NC(=O)[C@H](C)NC(=O)[C@H](C)NC(=O)[C@H](CCC(N)=O)NC(=O)CNC(=O)[C@H](CCC(=O)O)NC(=O)[C@H](CC(C)C)NC(=O)[C@H](Cc1ccc(O)cc1)NC(=O)[C@H](CO)NC(=O)[C@H](CO)NC(=O)[C@@H](NC(=O)[C@H](CC(=O)O)NC(=O)[C@H](CO)NC(=O)[C@@H](NC(=O)[C@H](Cc1ccccc1)NC(=O)[C@@H](NC(=O)CNC(=O)[C@H](CCC(=O)O)NC(=O)[C@H](C)NC(=O)[C@@H](N)Cc1c[nH]cn1)[C@@H](C)O)[C@@H](C)O)C(C)C)C(=O)N[C@@H](C)C(=O)N[C@@H](Cc1c[nH]c2ccccc12)C(=O)N[C@@H](CC(C)C)C(=O)N[C@H](C(=O)N[C@@H](CCCCN)C(=O)NCC(=O)N[C@@H](CCCNC(=N)N)C(N)=O)C(C)C [GLP-1(7–36)], the “effect on PKA activity in alpha cells” value ([1]; 10 pmol/l) was “no inhibitory effect”, the “effect on cAMP/PKA activity in alpha cells” value ([1]; 10,000 pmol/l) was “increased cAMP/PKA activity” and the “inhibitory effect on glucagon secretion in Glp1r−/− mouse islets” value ([2]; 10 pmol/l, Glp1r−/− islets, 1 mmol/l glucose) was “persisted”. For the same molecule, the “inhibitory effect on glucagon secretion in Glp1r−/− islets after PTX” value ([2]; 10 pmol/l, Glp1r−/− islets, PTX pretreatment) was “abolished”, the “change of the inhibitory effect on glucagon secretion by exendin(9–39)” value ([2]; 10 pmol/l, exendin(9–39) 1 μmol/l) was “reduced” and the “glucagonostatic effect in the presence of exendin(9–39)” value ([2]; 10 pmol/l, exendin(9–39) 1 μmol/l, 1 mmol/l glucose) was “retained their glucagonostatic effect”. For the same molecule, the “glucagonostatic effect in the presence of the PKA inhibitor 8-Br-Rp-cAMPS” value ([2]; 8-Br-Rp-cAMPS 10 μmol/l, 1 mmol/l glucose) was “not affected”, the “glucagonostatic effect remaining with exendin(9–39), in the presence of sitagliptin” value ([2]; exendin(9–39) plus DPP-4 inhibitor sitagliptin) was “abolished” and the “inhibition of glucagon secretion” value ([2]; islets cultured overnight without PTX, 1 mmol/l glucose) was ~ 50%. The “inhibitory effect on glucagon secretion after PTX pretreatment” value ([2]; overnight PTX 100 ng/ml, 1 mmol/l glucose) was “unaffected”, the IC50 ([2]; read-out: half-maximal inhibitory concentration (IC50) for inhibition of glucagon secretion, isolated mouse islets, 1 mmol/l glucose, groups of 12 islets from 4–6 mice, glucagon ELISA) was 2.5 pM and the “insulinotropic effect in Glp1r−/− mouse islets” value ([3]; Glp1r−/− islets) was “lost”. The “concentrations at which stimulation of insulin secretion attained statistical significance” value ([3]; mouse islets, 1 mmol/l glucose) was at least 100 pmol/L, the “concentration at which stimulation of somatostatin secretion was already detectable” value [4] was 10 pmol/L and the “inhibition of glucagon secretion” value (human pancreatic islets) was ~ 50%.
CCCOc1ccc(Br)cc1-c1cc(-c2ccc(Cl)cc2)[nH]c1-c1ccncc1 [L-168049] was tested, and the “effect on the glucagonostatic effect of GLP-1(9–36)” value ([2]; mouse islets, L-168049 100 nmol/l, GLP-1(9–36) 10 pmol/l) was “abolished”.
For CC1=NS(=O)(=O)c2cc(Cl)ccc2N1 [diazoxide], the “reduction of submembrane granule density” value (mouse alpha cells; 200 μmol/l) was ~ 40%.
For CC(C)NCC(O)c1ccc(O)c(O)c1 (stereo not drawn) [isoprenaline], the “stimulation of glucagon secretion” value ([2]; mouse islets, 1 mmol/l glucose) was over 2.2 fold.
With ω-agatoxin the “further change of Ca2+ entry on addition in the presence of GLP-1(9–36)” value (P/Q-type Ca^2+ channels) was −8±4%, the “effect on glucagon secretion” value ([2]; 200 nmol/l, 1 mmol/l glucose) was “inhibited glucagon secretion nearly as strongly as GLP-1(9–36)” and the “reduction of the number of docked granules” value (mouse alpha cells; 200 nmol/l) was “to the same extent as GLP-1(9–36)”.
